The text below walks through data of US20250127896A1, “CHIMERIC TIM4 RECEPTORS AND USES THEREOF” (CERO THERAPEUTICS HOLDINGS, INC., priority 2021, published 2025).

For assay [1], the system named is A2780 ovarian cancer cells. Nature of the assay: Viability and phosphatidylserine exposure of A2780 cells treated with PARP inhibitors (annexin V). The class given is cell-based, human. Here is the method:
Viability (FIG. 31A) and phosphatidylserine (PS) exposure (FIG. 31B) of A2780 cells treated with niraparib or olaparib (both at 0.25 to 6 μM) at 96 hours.
(§1) At day 0, media was exchanged and donor T cells from three subjects (FIG. 28) transduced with CER-1234, CER-1236, or control CER-1183 (FIG. 27A) were added at various effector:target ratios to A2780 cells treated with PARPi to assess chimeric Tim4 receptor-T cell activation, cytokine production, proliferation, and cytotoxic responses. Chimeric Tim4 receptor-T cells immunophenotyping and bulk supernatant analysis was performed on day 2 and day 5 following initiation of co-culture.
Phosphatidylserine exposure on A2780 ovarian cancer cells upon treatment with the small molecule PARP inhibitors niraparib or olaparib was evaluated by annexin v staining to determine the appropriate drug dose. Phosphatidylserine targeting Tim-4 CER constructs designed to enhance cytotoxicity and target-dependent tumor cell fragment uptake were engineered. […] CER-1250 has the same intracellular signaling domains as CER1236 but has a mutated IgV domain with AAAA substitution to abrogate phosphatidylserine binding. Niraparib (0.5 μM) and olaparib (1.5 μM) were used to expose phosphatidylserine on the surface of A2780 cells for CER T cell recognition and cytotoxicity, T-cell activation, and cytokine responses were evaluated. Uptake of antigen by CER-1236 T cells was modeled with human papilloma virus E7 antigen-expressing squamous carcinoma (SCC152) TMEM30A phospholipid flippase knockout cells. […] E7 antigen presentation by CER-1236 T cells was assayed by surface expression of HLA-DR, a marker of T cell activation, on autologous HLA-A2-restricted E7 TCR T cells.
The induction of surface phosphatidylserine expression on A2780 ovarian cells treated with the PARP inhibitors olaparib and niraparib was measured by flow cytometry (FC) using annexin V.

The test system of assay [2] is A2780 cells. As to conditions: compared to untreated. Here is the method:
FIG. 34B: At 120 hours, the ratio of cells remaining in treated samples compared to untreated A2780 samples was quantified using the incucyte data from FIG. 34A. FIG. 34C: Proliferation of CER T cells in co-culture assays.
as §1
CER T-cell cytotoxic function was evaluated using the Incucyte® live-cell analysis system in co-culture assays with A2780 cells. A2780 cells engineered to constitutively express mCherry were pretreated with 1.5 μM olaparib, 0.5 μM niraparib or no drug for 96 hours. CER T cells (expanded for 6 days after transduction) in T-cell optimizer media containing IL-2, IL-7, and IL-15 were co-cultured with A2780 cells at an effector:target (E:T) ratio of 1:2 in the presence of the same concentrations of olaparib or niraparib.

The test system of assay [3] is REC-1 cells. Nature of the assay: Phagocytosis of pHrodo-labeled ibrutinib-treated REC-1 cells by CER T cells. The class given is cell-based. As to conditions: REC-1 pretreated 10 μM ibrutinib, 16 and 40 hours of co-culture. From the text: FIG. 13A: Representative flow cytometry histograms showing engulfment of pHrodo red-labeled REC-1 target cells by CER1234, CER1161, and CER1183 T cells. FIG. 13B: Graphical summary of flow cytometry data showing engulfment of pHrodo red-labeled REC-1 target cells by CER1234, CER1161, and CER1183 T cells. * P<0.01, ** P<0.001, *** P<0.0001; mean+SD, n=4. FIG. 13C: Representative fluorescence microscopy images (at 40×) showing engulfment of pHrodo red-labeled REC-1 target cells by CER1234, CER1161, and CER1183 T cells. FIG. 13D: Engulfed pHrodo-green-labeled REC-1 tumor fragments co-localize into Lyso-tracker red-labeled lysosomes.
Phagocytosis was assessed in co-culture assays of REC-1 cells with CER T cells. […] The percentage of pHrodo red-positive cells was determined by flow cytometry after 16 or 40 hours of co-culture. The localization of tumor fragments in CER T-cell lysosomal compartments was assessed in a separate experiment with REC-1 cells labeled with pHrodo green; following co-culture, all cells were labeled with Lyso-tracker red. Visualization of engulfment was performed by fluorescence microscopy. 1-way ANOVA with Dunnett's post hoc test was performed compared with untransduced T cells.

The subject of assay [4] is Jeko1 TMEM30A−/− cells. The assay can be described thus: Uptake/engulfment of pHrodo-labeled JeKo-1 PS+ (TMEM30A−/−) cells by CER T cells. The class given is cell-based. As to conditions: pHrodo label, in vitro co-culture. The method, then:
FIG. 20: FACs and imaging-based detection of pHrodo dye-labeled tumor cell phagocytosis and endocytosis.
Statistical analysis was performed using 2-way ANOVA.

Assay [5] has as its system REC-1 cells. Nature of the assay: CER T cell cytotoxicity against REC-1 mCherry cells with ibrutinib (Incucyte). The class given is cell-based. As to conditions: REC-1 cells. From the text:
FIG. 38: CER1236 T cells have enhanced and more complete cytotoxic effect against Ibrutinib-treated REC-1 MCL cells but not untreated REC-1 MCL cells.
Ibrutinib was washed off prior to co-culture with CER T cells. […] Total fluorescence of REC-1 mCherry cells decreased as cytotoxicity occurred.

Assay [6] concerns REC-1 cells. The assay can be described thus: T-cell activation markers PD-1 and 4-1BB in co-culture with REC-1 cells (flow cytometry). Format: cell-based. As to conditions: co-culture with REC-1 cells in the presence of 0.5 μM ibrutinib, 96 hours. The method, then: FIGS. 15A-15B: Induction of Cell-Surface Markers of T-Cell Activation in Ibrutinib-Treated Co-Cultures of CER1183 and CER1234 T cells and REC-1 Target Cells. Samples depicted in bar graphs from left to right, untransduced, CER-1183, and CER-1234. FIG. 15A: PD-1 expression in co-cultures. FIG. 15B: 4-1BB expression in co-cultures.
T-cell activation markers programmed death-1 (PD-1) and 4-1BB were evaluated on viable CD3+ T cells by flow cytometry using commercially available fluorochrome-conjugated antibodies. […] Assays were conducted 96 hours after initiation of co-culture of CER T cells with REC-1 cells.
Background: In flow cytometry, cells or beads pass a laser one at a time.

Assay [7] has as its system REC-1 cells. The assay can be described thus: Cytokine induction in CER T / REC-1 co-cultures (multiparametric ELISA). The class given is cell-based. As to conditions: co-culture with REC-1 cells, 0.5 μM ibrutinib, 96 hours. The method, then:
FIGS. 16A-16H: Induction of Cytokines in Ibrutinib-Treated Co-Cultures of CER1183 and CER1234 T cells and REC-1 Target Cells. Samples depicted in bar graphs from left to right, untransduced, CER-1183, and CER-1234. FIG. 16A: TNFα induction. FIG. 16B: IL-2 induction. FIG. 16C: IFNγ. FIG. 16D: IL-5 induction. FIG. 16E: IL-6 induction. FIG. 16F: IL-10 induction. FIG. 16G: IL-4 induction. FIG. 16H: granzyme B induction.
Cytokine induction was assessed by multiparametric ELISA using conditioned supernatants harvested after 96 hours in the cytotoxicity assay described above.
(§2) CER T-cell activation was assessed by measuring induction of IFN-gamma by plate- and cell-based assays. Single induction plate assay: varying concentrations of phosphatidylserine (PS) or phosphatidylethanolamine (PE), a control membrane phospholipid not recognized by wild type TIM-4 (wtTIM-4), were coated onto high-binding tissue culture plates. CER T cells were added and IFN-γ levels were measured 24 hours after ligand exposure by ELISA. EC50 concentrations were determined by nonlinear regression (agonist vs. response-variable slope (4 parameters)). Induction by recursive stimulation plate assay: CER T cells were added to phosphatidylserine coated plates (2.5-20 μg/mL PS coating). Five days later, CER T cells were transferred to uncoated plates with fresh T cell optimizer media for 24 hours. Then, CER T cells were transferred again to a fresh PS coated plate. Supernatant was collected to assess IFN-γ induction by ELISA at various timepoints during re-stimulation (24, 72, and 120 hours). Cell-based assay: cytokine induction was assessed by multiparametric ELISA using conditioned supernatants harvested after 120 hours from the cytotoxicity assay described below.
In general terms: An ELISA detects its analyte on a solid surface through an enzyme-linked reagent.

The test system of assay [8] is phosphatidylserine (PS). Nature of the assay: Single induction plate assay: IFN-γ by CER T cells on plate-bound phosphatidylserine (ELISA). The class given is cell-based. As to conditions: plate-bound PS.
Source text: FIGS. 19A-19C: CER T cells are activated and produce IFN-γ in response to phosphatidylserine engagement in a cell-free in vitro system. FIG. 19A: IFN-γ production in response phosphatidylserine (PS). IFN-γ production was induced in CER-1236 and CER-1234 T cells stimulated with PS (FIG. 19A), but not with phosphatidylethanolamine (PE) (FIG. 19B). […] FIG. 19C: CER1236 T cells are capable of recursive stimulation in vitro. Recursive IFN-γ induction with 3 serial stimulations at the indicated time points following a 24-hour rest after the first stimulation.
FIG. 33A-33C: CER T cells are activated and produce IFN-γ in response to phosphatidylserine engagement in a cell-free in vitro system. FIG. 33A: IFN-γ production in response phosphatidylserine (PS). IFN-γ production was induced in CER-1236 and CER-1234 T cells stimulated with PS (FIG. 33A), but not with phosphatidylethanolamine (PE) (FIG. 33B). […] FIG. 33C: CER1236 T cells are capable of recursive stimulation in vitro. Recursive IFN-γ induction with 3 serial stimulations at the indicated time points following a 24-hour rest after the first stimulation.
FIG. 44 are graphs showing IFNγ production in CER1234 T cells (left) or CER1236 T cells (right) from three donors in response to titrating doses of plate-bound phosphatidylserine.
FIG. 45 are graphs showing IFNγ production in CER1234 T cells or CER1236 T cells by donor in response to increasing doses of plate-bound phosphatidylserine.
FIG. 46 are graphs showing IFNγ production in CER1234 T cells or CER1236 T cells by donor in response to increasing doses of plate-bound phosphatidylserine at day 14 post-thaw.
FIG. 47 are graphs showing T cell expansion (left), IFNγ production (center), and cell viability (right) in CER1236 T cells in response to increasing doses of plate-bound phosphatidylserine.
FIG. 48 are graphs showing T cell expansion (left), IFNγ production (center), and cell viability (right) in CER1234 T cells in response to increasing doses of plate-bound phosphatidylserine.
as §2
T cells obtained from three different donors were transduced with CER1234 or CER1236 and incubated on titrating doses of plate-bound phosphatidylserine.
24 hour IFNγ stimulation by plate-bound phosphatidylserine aligns with day 5 post-activation expansion for CER1236 T cells. […] 24 hour IFNγ stimulation by plate-bound phosphatidylserine aligns with day 5 post-activation expansion for CER1234 T cells.

`O=C(c1cc(Cc2n[nH]c(=O)c3ccccc23)ccc1F)N1CCN(C(=O)C2CC2)CC1` [olaparib]: the “effective concentration that killed 25% cells (EC25)” value in assay [1] (A2780 cells) stood at 1500 nM. For the same molecule, the “phosphatidylserine exposure on viable A2780 cells” value in assay [1] (subtherapeutic doses, 96 hours) is reported as “induce phosphatidylserine exposure on viable A2780 cells”. Further, the “A2780 cells eliminated, single agent” value in assay [2] worked out at 34%.
Regarding “CER1161: Tim4 binding domain-CD28tm-CD28icd-CD3zICD, SEQ ID NO:21”, the “engulfment of pHrodo red+ target cells” value in assay [3] is reported as “increased engulfment of pHrodo red+target cells relative to untransduced T cells”.
With `C=C1[C@@H](C)[C@H]2[C@H](Cc3ccccc3)NC(=O)[C@]23[C@H](OC(C)=O)/C=C/[C@@](C)(O)C(=O)[C@@H](C)C/C=C/[C@H]3[C@@H]1O` [Cytochalasin D, reference compound], the “uptake/engulfment of JeKo-1 PS+ (TMEM30A−/−) tumor cell fragments” value in assay [4] is “blocked tumor cell fragment uptake”.
The same measure, in the same setting: under `CO/C1=C\C(C)=C\[C@@H](C)[C@@H](O)[C@@H](C)C/C(C)=C/C=C/[C@H](OC)[C@@H]([C@@H](C)[C@@H](O)[C@H](C)[C@@]2(O)C[C@@H](O)[C@H](C)[C@@H](C(C)C)O2)OC1=O` [Bafilomycin A, reference compound] stands “blocked tumor cell fragment uptake”.

B1: CER 1183: wildtype human Tim4, SEQ ID NO:20; control molecule lacking intracellular T-cell signaling domains (protein)
chain: MSKEPLILWLMIEFWWLYLTPVTSETVVTEVLGHRVTLPCLYSSWSHNSNSMCWGKDQCPYSGCKEALIRTDGMRVTSRKSAKYRLQGTIPRGDVSLTILNPSESDSGVYCCRIEVPGWFNDVKINVRLNLQRASTTTHRTATTTTRRTTTTSPTTTRQMTTTPAALPTTVVTTPDLTTGTPLQMTTIAVFTTANTCLSLTPSTLPEEATGLLTPEPSKEGPILTAESETVLPSDSWSSVESTSADTVLLTSKESKVWDLPSTSHVSMWKTSDSVSSPQPGASDTAVPEQNKTTKTGQMDGIPMSMKNEMPISQLLMIIAPSLGFVLFALFVAFLRGKLMETYCSQKHTRLDYIGDSKNVLNDVQHGREDEDGLFTL
Take B1: the “tumor cell killing in combination with ibrutinib” value in assay [5] is “no additive effect with ibrutinib”. Besides, the “PD-1 and 4-1BB expression on the T-cell surface” value in assay [6] is given as “not increased”. The “cytokine induction: TNF-α, IFN-γ, IL-10, IL-5, granzyme B” value in assay [7] was “not induced”. For the same molecule, the “IFN-γ production in response to phosphatidylserine” value in assay [8] was “did not induce IFN-γ”.
